# Patent US3989730A, “Bone-seeking technetium-99m complex” (priority 1973, dated 1976)
# Like-named read-outs stand apart in the source and are kept apart here.
# Settings: for Blood, % Dose in Whole Organ / Blood, % dose / 1 % body weight / Bone Ave, % Dose/1 % Body weight / Femur, % dose / 1 % body weight / Kidneys, % Dose in Whole Organ / Kidneys, % dose / 1 % body weight / Liver, % Dose in Whole Organ / Liver, % dose / 1 % body weight / Marrow, % Dose in Whole Organ / Marrow, % dose / 1 % body weight / Muscle, % Dose in Whole Organ / Muscle, % dose / 1 % body weight / Pelvis, % dose / 1 % body weight / Spine, % dose / 1 % body weight / Tibia, % dose / 1 % body weight / Urine, % Dose / W. Femur, % Dose in Whole Organ / W. Tibia, % Dose in Whole Organ: 2 Hrs; for Ratio 99mTc/85Sr, Ave Bone / Ratio 99mTc/85Sr, Blood / Ratio 99mTc/85Sr, Femur / Ratio 99mTc/85Sr, Kidneys / Ratio 99mTc/85Sr, Liver / Ratio 99mTc/85Sr, Marrow / Ratio 99mTc/85Sr, Muscle / Ratio 99mTc/85Sr, Pelvis / Ratio 99mTc/85Sr, Spine / Ratio 99mTc/85Sr, Tibia: 2 hours
substance,measurement,setting,value
"99m technetium-tin-1-amino-ethane-1,1-diphosphonate [99mTc-Sn-AEDP]","Blood, % Dose in Whole Organ",AEDP 0.01 mg/kg,1.18 % Dose
same,"Blood, % dose / 1 % body weight",AEDP 0.01 mg/kg,0.168 % Dose/1 % Body weight
same,"Bone Ave, % Dose/1 % Body weight",AEDP 0.01 mg/kg,7.60 % Dose/1 % Body weight
same,"Femur, % dose / 1 % body weight",AEDP 0.01 mg/kg,7.54 % Dose/1 % Body weight
same,"Kidneys, % Dose in Whole Organ",AEDP 0.01 mg/kg,1.59 % Dose
same,"Kidneys, % dose / 1 % body weight",AEDP 0.01 mg/kg,2.72 % Dose/1 % Body weight
same,"Liver, % Dose in Whole Organ",AEDP 0.01 mg/kg,1.69 % Dose
same,"Liver, % dose / 1 % body weight",AEDP 0.01 mg/kg,0.617 % Dose/1 % Body weight
same,"Marrow, % Dose in Whole Organ",AEDP 0.01 mg/kg,0.657 % Dose
same,"Marrow, % dose / 1 % body weight",AEDP 0.01 mg/kg,0.300 % Dose/1 % Body weight
same,"Muscle, % Dose in Whole Organ",AEDP 0.01 mg/kg,0.988 % Dose
same,"Muscle, % dose / 1 % body weight",AEDP 0.01 mg/kg,0.037 % Dose/1 % Body weight
same,"Pelvis, % dose / 1 % body weight",AEDP 0.01 mg/kg,8.53 % Dose/1 % Body weight
same,"Spine, % dose / 1 % body weight",AEDP 0.01 mg/kg,6.20 % Dose/1 % Body weight
same,"Tibia, % dose / 1 % body weight",AEDP 0.01 mg/kg,8.13 % Dose/1 % Body weight
same,"Urine, % Dose",AEDP 0.01 mg/kg,48.39 % Dose
same,"W. Femur, % Dose in Whole Organ",AEDP 0.01 mg/kg,2.34 % Dose
same,"W. Tibia, % Dose in Whole Organ",AEDP 0.01 mg/kg,1.96 % Dose
same,"Blood, % Dose in Whole Organ",AEDP 0.05 mg/kg,1.01 % Dose
same,"Blood, % dose / 1 % body weight",AEDP 0.05 mg/kg,0.144 % Dose/1 % Body weight
same,"Bone Ave, % Dose/1 % Body weight",AEDP 0.05 mg/kg,8.39 % Dose/1 % Body weight
same,"Femur, % dose / 1 % body weight",AEDP 0.05 mg/kg,8.63 % Dose/1 % Body weight
same,"Kidneys, % Dose in Whole Organ",AEDP 0.05 mg/kg,1.13 % Dose
same,"Kidneys, % dose / 1 % body weight",AEDP 0.05 mg/kg,1.83 % Dose/1 % Body weight
same,"Liver, % Dose in Whole Organ",AEDP 0.05 mg/kg,0.806 % Dose
same,"Liver, % dose / 1 % body weight",AEDP 0.05 mg/kg,0.176 % Dose/1 % Body weight
same,"Marrow, % Dose in Whole Organ",AEDP 0.05 mg/kg,0.549 % Dose
same,"Marrow, % dose / 1 % body weight",AEDP 0.05 mg/kg,0.250 % Dose/1 % Body weight
same,"Muscle, % Dose in Whole Organ",AEDP 0.05 mg/kg,1.20 % Dose
same,"Muscle, % dose / 1 % body weight",AEDP 0.05 mg/kg,0.028 % Dose/1 % Body weight
same,"Pelvis, % dose / 1 % body weight",AEDP 0.05 mg/kg,7.82 % Dose/1 % Body weight
same,"Spine, % dose / 1 % body weight",AEDP 0.05 mg/kg,7.80 % Dose/1 % Body weight
same,"Tibia, % dose / 1 % body weight",AEDP 0.05 mg/kg,9.30 % Dose/1 % Body weight
same,"Urine, % Dose",AEDP 0.05 mg/kg,44.21 % Dose
same,"W. Femur, % Dose in Whole Organ",AEDP 0.05 mg/kg,2.41 % Dose
same,"W. Tibia, % Dose in Whole Organ",AEDP 0.05 mg/kg,2.14 % Dose
same,"Blood, % Dose in Whole Organ",AEDP 0.1 mg/kg,0.96 % Dose
same,"Blood, % dose / 1 % body weight",AEDP 0.1 mg/kg,0.137 % Dose/1 % Body weight
same,"Bone Ave, % Dose/1 % Body weight",AEDP 0.1 mg/kg,7.51 % Dose/1 % Body weight
same,"Femur, % dose / 1 % body weight",AEDP 0.1 mg/kg,7.93 % Dose/1 % Body weight
same,"Kidneys, % Dose in Whole Organ",AEDP 0.1 mg/kg,0.913 % Dose
same,"Kidneys, % dose / 1 % body weight",AEDP 0.1 mg/kg,1.28 % Dose/1 % Body weight
same,"Liver, % Dose in Whole Organ",AEDP 0.1 mg/kg,0.309 % Dose
same,"Liver, % dose / 1 % body weight",AEDP 0.1 mg/kg,0.083 % Dose/1 % Body weight
same,"Marrow, % Dose in Whole Organ",AEDP 0.1 mg/kg,0.211 % Dose
same,"Marrow, % dose / 1 % body weight",AEDP 0.1 mg/kg,0.096 % Dose/1 % Body weight
same,"Muscle, % Dose in Whole Organ",AEDP 0.1 mg/kg,1.46 % Dose
same,"Muscle, % dose / 1 % body weight",AEDP 0.1 mg/kg,0.034 % Dose/1 % Body weight
same,"Pelvis, % dose / 1 % body weight",AEDP 0.1 mg/kg,6.24 % Dose/1 % Body weight
same,"Spine, % dose / 1 % body weight",AEDP 0.1 mg/kg,7.36 % Dose/1 % Body weight
same,"Tibia, % dose / 1 % body weight",AEDP 0.1 mg/kg,8.50 % Dose/1 % Body weight
same,"Urine, % Dose",AEDP 0.1 mg/kg,38.8 % Dose
same,"W. Femur, % Dose in Whole Organ",AEDP 0.1 mg/kg,2.38 % Dose
same,"W. Tibia, % Dose in Whole Organ",AEDP 0.1 mg/kg,2.18 % Dose
same,"Blood, % Dose in Whole Organ",AEDP 0.5 mg/kg,1.38 % Dose
same,"Blood, % dose / 1 % body weight",AEDP 0.5 mg/kg,0.197 % Dose/1 % Body weight
same,"Bone Ave, % Dose/1 % Body weight",AEDP 0.5 mg/kg,6.96 % Dose/1 % Body weight
same,"Femur, % dose / 1 % body weight",AEDP 0.5 mg/kg,6.59 % Dose/1 % Body weight
same,"Kidneys, % Dose in Whole Organ",AEDP 0.5 mg/kg,1.11 % Dose
same,"Kidneys, % dose / 1 % body weight",AEDP 0.5 mg/kg,2.11 % Dose/1 % Body weight
same,"Liver, % Dose in Whole Organ",AEDP 0.5 mg/kg,0.216 % Dose
same,"Liver, % dose / 1 % body weight",AEDP 0.5 mg/kg,0.079 % Dose/1 % Body weight
same,"Marrow, % Dose in Whole Organ",AEDP 0.5 mg/kg,0.23 % Dose
same,"Marrow, % dose / 1 % body weight",AEDP 0.5 mg/kg,0.104 % Dose/1 % Body weight
same,"Muscle, % Dose in Whole Organ",AEDP 0.5 mg/kg,0.883 % Dose
same,"Muscle, % dose / 1 % body weight",AEDP 0.5 mg/kg,0.021 % Dose/1 % Body weight
same,"Pelvis, % dose / 1 % body weight",AEDP 0.5 mg/kg,7.93 % Dose/1 % Body weight
same,"Spine, % dose / 1 % body weight",AEDP 0.5 mg/kg,6.05 % Dose/1 % Body weight
same,"Tibia, % dose / 1 % body weight",AEDP 0.5 mg/kg,7.27 % Dose/1 % Body weight
same,"Urine, % Dose",AEDP 0.5 mg/kg,48.85 % Dose
same,"W. Femur, % Dose in Whole Organ",AEDP 0.5 mg/kg,1.74 % Dose
same,"W. Tibia, % Dose in Whole Organ",AEDP 0.5 mg/kg,1.55 % Dose
same,"Ratio 99mTc/85Sr, Ave Bone",0.01 mg/kg,0.735
same,"Ratio 99mTc/85Sr, Blood",0.01 mg/kg,0.406
same,"Ratio 99mTc/85Sr, Femur",0.01 mg/kg,0.720
same,"Ratio 99mTc/85Sr, Kidneys",0.01 mg/kg,4.99
same,"Ratio 99mTc/85Sr, Liver",0.01 mg/kg,3.00
same,"Ratio 99mTc/85Sr, Marrow",0.01 mg/kg,1.27
same,"Ratio 99mTc/85Sr, Muscle",0.01 mg/kg,0.338
same,"Ratio 99mTc/85Sr, Pelvis",0.01 mg/kg,0.794
same,"Ratio 99mTc/85Sr, Spine",0.01 mg/kg,0.689
same,"Ratio 99mTc/85Sr, Tibia",0.01 mg/kg,0.710
same,"Ratio 99mTc/85Sr, Ave Bone",0.05 mg/kg,0.683
same,"Ratio 99mTc/85Sr, Blood",0.05 mg/kg,0.409
same,"Ratio 99mTc/85Sr, Femur",0.05 mg/kg,0.687
same,"Ratio 99mTc/85Sr, Kidneys",0.05 mg/kg,3.30
same,"Ratio 99mTc/85Sr, Liver",0.05 mg/kg,1.32
same,"Ratio 99mTc/85Sr, Marrow",0.05 mg/kg,1.18
same,"Ratio 99mTc/85Sr, Muscle",0.05 mg/kg,0.236
same,"Ratio 99mTc/85Sr, Pelvis",0.05 mg/kg,0.684
same,"Ratio 99mTc/85Sr, Spine",0.05 mg/kg,0.675
same,"Ratio 99mTc/85Sr, Tibia",0.05 mg/kg,0.681
same,"Ratio 99mTc/85Sr, Ave Bone",0.1 mg/kg,0.716
same,"Ratio 99mTc/85Sr, Blood",0.1 mg/kg,0.409
same,"Ratio 99mTc/85Sr, Femur",0.1 mg/kg,0.714
same,"Ratio 99mTc/85Sr, Kidneys",0.1 mg/kg,2.94
same,"Ratio 99mTc/85Sr, Liver",0.1 mg/kg,0.490
same,"Ratio 99mTc/85Sr, Marrow",0.1 mg/kg,0.621
same,"Ratio 99mTc/85Sr, Muscle",0.1 mg/kg,0.205
same,"Ratio 99mTc/85Sr, Pelvis",0.1 mg/kg,0.725
same,"Ratio 99mTc/85Sr, Spine",0.1 mg/kg,0.705
same,"Ratio 99mTc/85Sr, Tibia",0.1 mg/kg,0.721
same,"Ratio 99mTc/85Sr, Ave Bone",0.5 mg/kg,0.644
same,"Ratio 99mTc/85Sr, Blood",0.5 mg/kg,0.280
same,"Ratio 99mTc/85Sr, Femur",0.5 mg/kg,0.628
same,"Ratio 99mTc/85Sr, Kidneys",0.5 mg/kg,2.47
same,"Ratio 99mTc/85Sr, Liver",0.5 mg/kg,0.459
same,"Ratio 99mTc/85Sr, Marrow",0.5 mg/kg,0.500
same,"Ratio 99mTc/85Sr, Muscle",0.5 mg/kg,0.140
same,"Ratio 99mTc/85Sr, Pelvis",0.5 mg/kg,0.692
same,"Ratio 99mTc/85Sr, Spine",0.5 mg/kg,0.614
same,"Ratio 99mTc/85Sr, Tibia",0.5 mg/kg,0.632
